# Key:
# pigweed = test: Test B pre/postemergence pigweed; assay type: in vivo, Amaranthus retroflexus
# How it was run: (§1)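 Test chemicals in a non-phytotoxic solvent mixture with surfactant were sprayed preemergence onto planted seeds and postemergence onto plants 2 to 18 cm tall (1- to 4-leaf stage). After twelve to sixteen days in a greenhouse, injury was visually rated against untreated controls from 0 (no effect) to 10 (complete control).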
# bedstraw = test: Test B pre/postemergence bedstraw; assay type: in vivo, Galium aparine
# How it was run: as §1
# purple nutsedge = test: Test B pre/postemergence purple nutsedge; assay type: in vivo, Cyperus rotundus
# How it was run: as §1
# velvetleaf = test: Test B pre/postemergence velvetleaf; assay type: in vivo, Abutilon theophrasti
# How it was run: as §1
# bamyardgrass = test: Test B flood test barnyardgrass; assay type: in vivo, Echinochloa crus-galli
# How it was run: (§2)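 Each value is a visual injury score relative to controls, with 10 meaning complete control and 0 no effect. Evaluation took place twelve to sixteen days after the 2-leaf-stage plants were treated and kept in the greenhouse.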
# sugar beet = test: Test B pre/postemergence sugar beet; assay type: in vivo, Beta vulgaris
# How it was run: as §1
# smallflower flatsedge = test: Test B flood test smallflower flatsedge; assay type: in vivo, Cyperus difformis
# How it was run: as §2
# wild oat = test: Test B pre/postemergence wild oat; assay type: in vivo, Avena fatua
# How it was run: as §1
# wheat = test: Test B pre/postemergence wheat; assay type: in vivo, Triticum aestivum
# How it was run: as §1
# rape = test: Test B pre/postemergence rape; assay type: in vivo, Brassica napus
# How it was run: as §1
# surinam grass = test: Test B pre/postemergence surinam grass; assay type: in vivo, Brachiaria decumbens
# How it was run: as §1
# soybean = test: Test B pre/postemergence soybean; assay type: in vivo, Glycine max
# How it was run: as §1
# blackgrass = test: Test B pre/postemergence blackgrass; assay type: in vivo, Alopecurus myosuroides
# How it was run: as §1
# corn = test: Test B pre/postemergence corn; assay type: in vivo, Zea mays
# How it was run: as §1
# cocklebur = test: Test B pre/postemergence cocklebur; assay type: in vivo, Xanthium strumarium
# How it was run: as §1
# crabgrass = test: Test B pre/postemergence crabgrass; assay type: in vivo, Digitaria sanguinalis
# How it was run: as §1
# [1] = Postemergence, Rate 250 g/ha, scale 0 to 10, 0 no effect, 10 complete control
# [2] = Postemergence, Rate 1000 g/ha, scale 0 to 10 (0 no effect, 10 complete control)
# [3] = Preemergence, Rate 125 g/ha, scale 0 to 10 (0 no effect, 10 complete control)
# [4] = Preemergence, Rate 250 g/ha, scale of 0 to 10 where 0 is no effect and 10 is complete control
# [5] = Preemergence, Rate 500 g/ha, scale 0 (no effect) to 10 (complete control)
# [6] = Rate 125 g/ha, Postemergence, scale 0 to 10, 0 no effect, 10 complete control
# [7] = Rate 500 g/ha, Postemergence, 0 to 10 scale (0 no effect, 10 complete control)
# [8] = Rate 1000 g/ha, Preemergence, scale 0 to 10 (0 no effect, 10 complete control)
# [9] = Rate 125 g/ha, Postemergence section (flood test species), scale 0 to 10, 0 no effect, 10 complete control
# [10] = flood test, listed under Postemergence, Rate 250 g/ha, scale 0 to 10, 0 no effect, 10 complete control
smiles,measurement,setting,value
CCN(CC)C(=O)n1oc(=O)n(-c2ccc(OC(F)(F)F)cc2)c1=O [Compound 12],Redroot pigweed plant response rating,pigweed; [1],0
same,Redroot pigweed plant response rating,pigweed; [2],0
same,"Plant response rating, Redroot pigweed",pigweed; [3],0
same,"Plant response rating, Redroot pigweed",pigweed; [4],0
same,Redroot pigweed plant response rating,pigweed; [5],0
same,Redroot pigweed plant response rating,pigweed; [6],0
same,Redroot pigweed plant response rating,pigweed; [7],0
same,"Plant response rating, Redroot pigweed",pigweed; [8],0
same,Bedstraw plant response rating,bedstraw; [1],0
same,Bedstraw plant response rating,bedstraw; [2],0
same,"Plant response rating, Bedstraw",bedstraw; [3],0
same,"Plant response rating, Bedstraw",bedstraw; [4],0
same,Bedstraw plant response rating,bedstraw; [5],0
same,Bedstraw plant response rating,bedstraw; [6],0
same,Bedstraw plant response rating,bedstraw; [7],0
same,"Plant response rating, Bedstraw",bedstraw; [8],0
same,Nutsedge plant response rating,purple nutsedge; [1],0
same,Nutsedge plant response rating,purple nutsedge; [2],0
same,"Plant response rating, Nutsedge",purple nutsedge; [3],0
same,"Plant response rating, Nutsedge",purple nutsedge; [4],0
same,Nutsedge plant response rating,purple nutsedge; [5],0
same,Nutsedge plant response rating,purple nutsedge; [6],0
same,Nutsedge plant response rating,purple nutsedge; [7],0
same,"Plant response rating, Nutsedge",purple nutsedge; [8],0
same,Velvetleaf plant response rating,velvetleaf; [1],0
same,Velvetleaf plant response rating,velvetleaf; [2],0
same,"Plant response rating, Velvetleaf",velvetleaf; [3],0
same,"Plant response rating, Velvetleaf",velvetleaf; [4],0
same,Velvetleaf plant response rating,velvetleaf; [5],0
same,Velvetleaf plant response rating,velvetleaf; [6],0
same,"Plant response rating, Velvetleaf",velvetleaf; [8],0
same,Barnyardgrass plant response rating,bamyardgrass; [2],0
same,Barnyardgrass plant response rating,bamyardgrass; [9],0
same,Barnyardgrass plant response rating,"bamyardgrass; Rate 500 g/ha, Postemergence section of Table B, 0 to 10 scale (0 no effect, 10 complete control)",0
same,Barnyardgrass plant response rating,bamyardgrass; [10],0
same,Sugarbeets plant response rating,sugar beet; [1],0
same,Sugarbeets plant response rating,sugar beet; [2],0
same,"Plant response rating, Sugarbeets",sugar beet; [3],0
same,"Plant response rating, Sugarbeets",sugar beet; [4],0
same,Sugarbeets plant response rating,sugar beet; [5],0
same,Sugarbeets plant response rating,sugar beet; [6],0
same,"Plant response rating, Sugarbeets",sugar beet; [8],0
same,S. Flatsedge plant response rating,smallflower flatsedge; [2],0
same,S. Flatsedge plant response rating,smallflower flatsedge; [9],0
same,S. Flatsedge plant response rating,smallflower flatsedge; [10],0
same,Wild oats plant response rating,wild oat; [1],0
same,Wild oats plant response rating,wild oat; [2],0
same,"Plant response rating, Wild oats",wild oat; [3],0
same,"Plant response rating, Wild oats",wild oat; [4],0
same,Wild oats plant response rating,wild oat; [5],0
same,Wild oats plant response rating,wild oat; [6],0
same,"Plant response rating, Wild oats",wild oat; [8],0
same,Wheat plant response rating,wheat; [1],0
same,Wheat plant response rating,wheat; [2],0
same,"Plant response rating, Wheat",wheat; [3],0
same,"Plant response rating, Wheat",wheat; [4],0
same,Wheat plant response rating,wheat; [5],0
same,Wheat plant response rating,wheat; [6],0
same,"Plant response rating, Wheat",wheat; [8],0
same,Rape plant response rating,rape; [1],0
same,Rape plant response rating,rape; [2],0
same,"Plant response rating, Rape",rape; [3],0
same,"Plant response rating, Rape",rape; [4],0
same,Rape plant response rating,rape; [5],0
same,Rape plant response rating,rape; [6],0
same,Rape plant response rating,rape; [7],0
same,"Plant response rating, Rape",rape; [8],0
same,B. signalgrass plant response rating,surinam grass; [1],0
same,B. signalgrass plant response rating,surinam grass; [2],0
same,"Plant response rating, B. signalgrass",surinam grass; [3],0
same,"Plant response rating, B. signalgrass",surinam grass; [4],0
same,B. signalgrass plant response rating,surinam grass; [5],0
same,B. signalgrass plant response rating,surinam grass; [6],0
same,B. signalgrass plant response rating,surinam grass; [7],0
same,"Plant response rating, B. signalgrass",surinam grass; [8],6
same,Soybean plant response rating,soybean; [1],0
same,Soybean plant response rating,soybean; [2],1
same,"Plant response rating, Soybean",soybean; [3],0
same,"Plant response rating, Soybean",soybean; [4],0
same,Soybean plant response rating,soybean; [5],0
same,Soybean plant response rating,soybean; [6],0
same,"Plant response rating, Soybean",soybean; [8],0
same,Blackgrass plant response rating,blackgrass; [1],0
same,Blackgrass plant response rating,blackgrass; [2],0
same,"Plant response rating, Blackgrass",blackgrass; [3],0
same,"Plant response rating, Blackgrass",blackgrass; [4],0
same,Blackgrass plant response rating,blackgrass; [5],2
same,Blackgrass plant response rating,blackgrass; [6],0
same,Blackgrass plant response rating,blackgrass; [7],0
same,"Plant response rating, Blackgrass",blackgrass; [8],4
same,Corn plant response rating,corn; [1],0
same,Corn plant response rating,corn; [2],0
same,"Plant response rating, Corn",corn; [3],0
same,"Plant response rating, Corn",corn; [4],0
same,Corn plant response rating,corn; [5],0
same,Corn plant response rating,corn; [6],0
same,Corn plant response rating,corn; [7],0
same,"Plant response rating, Corn",corn; [8],0
same,Cocklebur plant response rating,cocklebur; [1],0
same,Cocklebur plant response rating,cocklebur; [2],0
same,"Plant response rating, Cocklebur",cocklebur; [3],0
same,"Plant response rating, Cocklebur",cocklebur; [4],0
same,Cocklebur plant response rating,cocklebur; [5],0
same,Cocklebur plant response rating,cocklebur; [6],0
same,Cocklebur plant response rating,cocklebur; [7],0
same,"Plant response rating, Cocklebur",cocklebur; [8],0
same,Crabgrass plant response rating,crabgrass; [1],0
same,Crabgrass plant response rating,crabgrass; [2],0
same,"Plant response rating, Crabgrass",crabgrass; [3],0
same,"Plant response rating, Crabgrass",crabgrass; [4],0
same,Crabgrass plant response rating,crabgrass; [5],0
same,Crabgrass plant response rating,crabgrass; [6],0
same,Crabgrass plant response rating,crabgrass; [7],0
same,"Plant response rating, Crabgrass",crabgrass; [8],6
